Tests used:
[1] = target: T1, 5-hydroxytryptamine receptor 1A (Homo sapiens, UniProt P08908); experiment: Binding affinity was determined towards 5-hydroxytryptamine 1A receptor using [3H]8-OH-DPAT as radioligand
T1 sequence (P08908 whole entry): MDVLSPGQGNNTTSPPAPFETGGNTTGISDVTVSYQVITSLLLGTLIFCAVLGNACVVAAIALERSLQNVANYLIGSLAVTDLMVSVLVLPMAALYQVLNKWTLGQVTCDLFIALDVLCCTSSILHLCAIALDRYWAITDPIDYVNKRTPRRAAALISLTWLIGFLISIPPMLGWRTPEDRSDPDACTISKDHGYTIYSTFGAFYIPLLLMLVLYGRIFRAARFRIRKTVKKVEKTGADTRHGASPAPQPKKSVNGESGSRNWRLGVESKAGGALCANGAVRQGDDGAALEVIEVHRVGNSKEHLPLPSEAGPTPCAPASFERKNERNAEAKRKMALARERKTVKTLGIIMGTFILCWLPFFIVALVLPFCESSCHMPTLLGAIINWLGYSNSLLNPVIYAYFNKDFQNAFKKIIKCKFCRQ

[2] = target: T2, 5-hydroxytryptamine receptor 1A (Homo sapiens) (UniProt P08908); experiment: Maximal response as a result of 5-hydroxytryptamine 1A receptor-mediated stimulation of [35S]GTP-gamma-S, binding; type: functional
T2 sequence (whole entry): T1 sequence (P08908 whole entry)

[3] = target: T3, Sodium-dependent serotonin transporter (Rattus norvegicus, UniProt P31652); experiment: Binding affinity towards serotonin [5-HT] reuptake site labeled with [3H]paroxetine as radioligand
T3 sequence (P31652 whole entry): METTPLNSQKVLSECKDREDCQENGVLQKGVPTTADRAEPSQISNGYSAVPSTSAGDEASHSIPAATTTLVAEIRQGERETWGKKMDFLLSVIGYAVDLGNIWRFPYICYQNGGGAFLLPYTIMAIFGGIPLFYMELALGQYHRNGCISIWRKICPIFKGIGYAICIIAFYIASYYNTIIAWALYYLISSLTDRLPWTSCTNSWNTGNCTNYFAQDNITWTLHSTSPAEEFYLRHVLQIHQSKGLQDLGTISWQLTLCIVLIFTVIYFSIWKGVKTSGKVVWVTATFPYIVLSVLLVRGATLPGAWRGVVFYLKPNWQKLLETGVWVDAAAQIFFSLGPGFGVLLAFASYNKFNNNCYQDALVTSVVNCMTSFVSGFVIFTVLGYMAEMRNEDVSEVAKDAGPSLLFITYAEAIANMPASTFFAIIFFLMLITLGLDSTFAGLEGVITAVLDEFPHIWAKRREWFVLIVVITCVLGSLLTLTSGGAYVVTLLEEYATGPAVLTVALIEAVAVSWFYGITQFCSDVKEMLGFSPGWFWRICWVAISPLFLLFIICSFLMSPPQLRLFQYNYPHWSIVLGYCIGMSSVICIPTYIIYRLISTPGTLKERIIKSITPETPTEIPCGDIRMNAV

[4] = target: T3, Sodium-dependent serotonin transporter; experiment: Binding affinity towards Serotonin transporter labeled with [3H]paroxetine as radioligand
[5] = target: T2, 5-hydroxytryptamine receptor 1A (Homo sapiens); experiment: Maximal response as a result of 5-HT1A receptor-mediated stimulation of [35S]GTP-gamma-S, binding; type: functional
[6] = target: T1, 5-hydroxytryptamine receptor 1A; experiment: Binding affinity towards 5-hydroxytryptamine 1A receptor using [3H]8-OH-DPAT as radioligand
[7] = target: Sodium-dependent serotonin transporter (Rattus norvegicus) (UniProt P31652); experiment: Inhibitory activity against serotonin [5-HT] reuptake site labeled with [3H]-paroxetine as radioligand at 100 nM concentration
Chain of Sodium-dependent serotonin transporter (Rattus norvegicus) (P31652 whole entry): as above

[8] = target: Sodium-dependent serotonin transporter (Rattus norvegicus) (UniProt P31652); experiment: Inhibitory activity against serotonin [5-HT] reuptake site labeled with [3H]paroxetine as radioligand at 100 nM concentration
[9] = target: Sodium-dependent serotonin transporter (Rattus norvegicus) (UniProt P31652); experiment: Inhibitory activity against Serotonin transporter labeled with [3H]-paroxetine as radioligand at 100 nM concentration
[10] = target: T1, 5-hydroxytryptamine receptor 1A; experiment: Binding affinity towards 5-HT1A receptor using [3H]8-OH-DPAT as radioligand
[11] = target: T2, 5-hydroxytryptamine receptor 1A (Homo sapiens); experiment: Inhibitory activity against 5-hydroxytryptamine 1A receptor using [3H]-8-OH-DPAT as radioligand at 100 nM concentration

SMILES | Ki [1] [nM] | Emax [2] [%] | Ki [3] [nM] | other results
Cc1ccc2cc(C3CCN(C[C@H](O)COc4cccc5[nH]ccc45)CC3)sc2c1 | 12.7 | 13.8 | 50.5 | 
COc1cccc2cc(C3CCN(C[C@H](O)COc4cccc5[nH]ccc45)CC3)sc12 |  |  |  | Ki [4]: 94.3 nM; Emax [5]: 9.32%; Ki [6]: 6.13 nM
Cc1ccc2cc(C3CCN(C[C@H](O)COc4cccc5[nH]c(C)cc45)CC3)sc2c1 | 22.6 |  |  | inhibition [8]: < 50%
Cc1cc2c(OC[C@@H](O)CN3CCC(c4cc5c(C)cccc5s4)CC3)cccc2[nH]1 | 10.4 | 12.1 | 17.4 | 
COc1ccc2sc(C3CCN(C[C@H](O)COc4cccc5[nH]ccc45)CC3)cc2c1 |  |  |  | inhibition [9]: < 50%; Ki [10]: 1.44 nM
Cc1cc2c(OC[C@@H](O)CN3CCC(c4cc5c(F)cccc5s4)CC3)cccc2[nH]1 | 14.1 | 11.6 | 34.2 | 
O[C@H](COc1cccc2[nH]ccc12)CN1CCC(c2cc3ccc(F)cc3s2)CC1 | 9.31 | 11.7 | 1.99 | 
Cc1cc2c(OC[C@@H](O)CN3CCC(c4cc5ccc(F)cc5s4)CC3)cccc2[nH]1 | 15.3 | 12.6 | 11.3 | 
O[C@H](COc1cccc2[nH]ccc12)CN1CCC(c2cc3c(Cl)cccc3s2)CC1 | 9.12 |  | 15.6 | 
COc1ccc2cc(C3CCN(C[C@H](O)COc4cccc5[nH]ccc45)CC3)sc2c1 |  |  |  | Ki [4]: 68.7 nM; Emax [5]: 4.92%; Ki [6]: 3.13 nM
CC(C)Oc1ccc2cc(C3CCN(C[C@H](O)COc4cccc5[nH]ccc45)CC3)sc2c1 |  |  |  | inhibition [9]: < 50%; Ki [6]: 19.9 nM
COc1cccc2sc(C3CCN(C[C@H](O)COc4cccc5[nH]ccc45)CC3)cc12 |  | 7.47 | 12.6 | 
Cc1cc(C)c2cc(C3CCN(C[C@H](O)COc4cccc5[nH]ccc45)CC3)sc2c1 |  |  |  | inhibition [11]: < 50%; inhibition [7]: < 50%
CC(C)Oc1cccc2sc(C3CCN(C[C@H](O)COc4cccc5[nH]ccc45)CC3)cc12 |  |  |  | inhibition [9]: < 50%; Ki [10]: 7.45 nM
O[C@H](COc1cccc2[nH]ccc12)CN1CCC(c2cc3cc(F)ccc3s2)CC1 | 29.4 | 13.2 | 11.8 | 
Cc1cc(C)c2cc(C3CCN(C[C@H](O)COc4cccc5[nH]c(C)cc45)CC3)sc2c1 | 27.8 | 13.4 | 52.1 | 

Further lines, with some results ahead:

Ki [1] [nM] | Emax [2] [%] | Ki [3] [nM] | SMILES | other results
7.21 | 11 | 105 | O[C@H](COc1cccc2[nH]ccc12)CN1CCC(c2cc3cc(Cl)ccc3s2)CC1 | 
4.7 | 17 | 3.69 | Cc1cccc2sc(C3CCN(C[C@H](O)COc4cccc5[nH]ccc45)CC3)cc12 | 
6.79 | 11.2 | 15.9 | O[C@H](COc1cccc2[nH]ccc12)CN1CCC(c2cc3c(F)cccc3s2)CC1 | 
6.07 |  |  | COc1ccc2c(C)c(C3CCN(C[C@H](O)COc4cccc5[nH]ccc45)CC3)sc2c1 | inhibition [7]: < 50%
7.5 | 12.1 | 5.27 | Cc1cc2c(OC[C@@H](O)CN3CCC(c4cc5cc(F)ccc5s4)CC3)cccc2[nH]1 | 
4.83 | 9.05 | 51.2 | COc1cccc2sc(C3CCN(C[C@H](O)COc4cccc5[nH]c(C)cc45)CC3)cc12 | 
5.17 |  |  | Cc1c(C2CCN(C[C@H](O)COc3cccc4[nH]ccc34)CC2)sc2ccc(F)cc12 | inhibition [8]: < 50%
3.7 | 12.3 | 16.7 | O[C@H](COc1cccc2[nH]ccc12)CN1CCC(c2cc3ccccc3s2)CC1 | 
7.64 |  | 14 | O[C@H](COc1cccc2[nH]ccc12)CN1CCC(c2cc3ccc(Cl)cc3s2)CC1 | 
7.12 | 12.5 | 37.2 | Oc1cccc2cc(C3CCN(C[C@H](O)COc4cccc5[nH]ccc45)CC3)sc12 | 
3.09 |  |  | Oc1ccc2cc(C3CCN(C[C@H](O)COc4cccc5[nH]ccc45)CC3)sc2c1 | inhibition [8]: < 50%
6.28 |  | 24.1 | Cc1c(C2CCN(C[C@H](O)COc3cccc4[nH]ccc34)CC2)sc2ccccc12 | 
